US5434136A, “Treatment of motility disorders with a GNRH analog” (priority 1992, dated 1995)

Legend:
[1] = tested on: irritable bowel syndrome; settings: patient
Protocol: The patient, a patient suffering from irritable bowel syndrome presented symptoms of nausea, vomiting, abdominal pain, and altered bowel habits. This patient was treated with lupron, 2.0 mg/day by subcutaneous injection, for a period of six months. […] Nafarelin is a GnRH analog available from SYNTEX, which differs from the natural GnRH peptide in a D-Nal (2)^6 substitution. […] Nafarelin therapy was discontinued, and treatment with Danazol, a 17-ethyltestosterone derivative known to antagonize GnRH receptors at the level of the pituitary, was begun, at 200 mg four times daily, P.O., for a period of three months.

[2] = tested on: serum estradiol, progesterone, LH, FSH; assay: Serum estradiol, progesterone, FSH and LH by radioimmunoassay before and after three months of leuprolide; format: in vivo, human; settings: for Estradiol after 3 months / Progesterone after 3 months / FSH after 3 months / LH after 3 months: serum
Source text: The symptoms of the two patients with GMD were abdominal pain located in the right upper quadrant and epigastrium, daily nausea, and intermittent vomiting exacerbated by eating and by the luteal phase of the menstrual cycle. The two patients with IIHVN had abdominal pain, nausea, and intermittent vomiting, and also had urinary tract involvement consisting of pain and a decrease in urination. The fifth patient had Roux-en-Y syndrome (defined as epigastric-to-right-upper-quadrant pain, nausea, and vomiting increased by eating) after surgical construction of a gastro-jejunal Roux-en-Y anastomosis. The mean duration of these symptoms was eight years (Table 1). All subjects had undergone extensive blood testing, several upper gastrointestinal x-ray series, barium enemas, esophagogastroduodenoscopy, endoscopic retrograde cholangiopancreatography, gastric emptying tests with radiolabeled meal, ultrasound of the abdomen, computerized axial tomography of the abdomen, and many other tests. The results of all tests were normal, except for prolonged gastric emptying in the patient with the Roux-en-Y Syndrome. Because of their intractable clinical problem, these patients were included in the test protocol with leuprolide acetate. Protocol: The symptoms of each patient were first assessed, and their tests evaluated. Each patient kept a daily symptom diary. Leuprolide acetate was obtained by prescription as Lupron (TAP pharmaceuticals, Abbott Labs, North Chicago, Ill.). One multi-use vial of Lupron comprised of […] Leuprolide Acetate. A daily dose of 0.5 mg ([…]) was self-administered by subcutaneous injection, for a period of three months. Each patient was examined at 0, 1 and 3 months of treatment. After the third month, leuprolide was continued as previously, and estrogen (0.625 mg orally) and calcium (1000 mg orally) were also administered. At the end of the sixth month, a two week withdrawal period from leuprolide acetate ensued. During this period a 10 mg oral dose of progesterone was given to pre-menopausal patients, to assess recurrence of symptoms and to induce menses. Post-menopausal women were not treated with progesterone during the two week withdrawal period. This procedure was then continued for an additional six months, with drug withdrawal and progesterone given every three months to induce a menstrual cycle. Serum estradiol, progesterone, FSH, and LH were quantitated by radioimmunoassay prior to the initiation of leuprolide treatment, and at three months post treatment initiation.

[3] = tested on: GI disorders secondary to SLE; assay: Treatment of patients with GI disorders secondary to Systemic Lupus Erythematosus: clinical outcome; format: in vivo, human; settings: for GI symptoms: within eight weeks
Protocol: Daily treatment with 2.0 mg luprolide acetate (Lupron, Tapp Abbott Pharmaceutical Company) was given daily by subcutaneous injection. […] Treatment with 1.25 mg. of leuprolide acetate (Lupron) was given daily by subcutaneous injection. […] Daily administration of 1.75 mg of luprolide acetate (Lupron) was administered subcutaneously. […] This patient has been hospitalized several times since beginning luprolide acetate therapy for exacerbations of their SLE, but the GI tract has not been a factor. Their debilitating symptoms have been controlled, and they were able to return to work. Daily administration of 1.5 mg of luprolide acetate (Lupron) was given by subcutaneous injection. Within eight weeks of Lupron therapy, their GI symptoms were controlled. […] Daily administration of 1.75 mg luprolide acetate (Lupron) was given subcutaneously. After six months of Lupron therapy, motility recordings were again performed. Ten migrating motor complexes per 12 hour recording session were seen. These complexes were organized and appeared more typical of a controlled tracing, showing normal cycling activity in the stomach and small intestine. […] Their hydrogen breath test was unchanged.

[4] = tested on: migrating motor complexes, jejunum; assay: Leuprolide acetate effects on migrating motor complexes in rats; format: in vivo, female Wistar rats; settings: for Migrating Motor Complexes, L-Fasted / Migrating Motor Complexes, L-Fed: mean ± SEM
Protocol: Eleven female Wistar rats weighing between 175 and 250 g were each implanted with four bipolar Ag/AgCL electrodes (the preparation of which is described in: Mathias, Am. J. Physiology, 249:[…]-[…], 1981). The electrodes were sewn 5 cm from the Ligament of Trietz and 5 cm apart, onto the jejunal serosa. The number of migrating myoelectric complexes was recorded using a R-612 Dynograph (Sensor-Medics, Anaheim, Calif.). Rats were fasted for 36 hours prior to recording and feeding (no food, liberal water), and were housed in special cages to remove feces. After 36 hours of fasting, Migrating Motor Complexes (MMC) were recorded at a sensitivity of 0.2 mV/cm, 2.5 mm/sec paper speed, and a Time Constant of 1 for a duration of 2 to 4 hours. Immediately following the fasted recording session, the rats were fed 2 biscuits of Purina rat chow with simultaneous recording during feeding and continued for 4 hours. This procedure was followed for 2 to 4 recording sessions prior to the treatment with leuprolide acetate (Controls). Leuprolide acetate was then administered daily, in the morning, subcutaneously in the hind limb at a dose ranging from 2 to 40 ug/100 g body weight. After a period of at least 24 hours post treatment with leuprolide, the fasting/fed recording sessions were begun as described for the controls to obtain recordings through 2 to 4 sessions.

[5] = after three months of treatment vs baseline
[6] = SLE patient 1, 2.0 mg daily s.c.
[7] = SLE patient 2, 1.25 mg daily s.c., within approximately eight weeks
[8] = SLE patient 4, 1.5 mg daily s.c.

CCNC(=O)[C@@H]1CCCN1C(=O)[C@H](CCCNC(=N)N)NC(=O)[C@H](CC(C)C)NC(=O)[C@@H](CC(C)C)NC(=O)[C@H](Cc1ccc(O)cc1)NC(=O)[C@H](CO)NC(=O)[C@H](Cc1c[nH]c2ccccc12)NC(=O)[C@H](Cc1c[nH]cn1)NC(=O)[C@@H]1CCC(=O)N1 [Leuprolide acetate, leuprolide acetate]
Blood levels of FSH and LH ([1]; 2.0 mg/day s.c., six months (entry one)): effectively reduced their blood levels of FSH and LH | Symptoms of irritable bowel disease ([1]; 2.0 mg/day s.c., six months (entry two)): effectively reduced the symptoms of their irritable bowel disease | Irritable bowel symptoms ([1]; depot of 7.5 mg I.M. monthly with 100 mg testosterone depot I.M. monthly, after six months): controlled without side effects | Estradiol after 3 months ([2]; Patient 1, baseline 44.0 pg/ml): 13.0 pg/mL | Progesterone after 3 months ([2]; Patient 1, baseline 3.0 n/ml): < 0.25 n/ml | FSH after 3 months ([2]; Patient 1, baseline 12.1 mIU/ml): 9.0 MIU/ml | LH after 3 months ([2]; Patient 1, baseline 19.0 mIU/mL): 6.0 mIU/ml | Estradiol after 3 months ([2]; Patient 2, baseline 44.0 pg/ml): 39.0 pg/mL | Progesterone after 3 months ([2]; Patient 2, baseline 1.0 n/ml): < 0.25 n/ml | FSH after 3 months ([2]; Patient 2, baseline 13.0 mIU/ml): 11.0 MIU/ml | LH after 3 months ([2]; Patient 2, baseline 16.0 mIU/ml): 7.0 mIU/ml | Estradiol after 3 months ([2]; Patient 3, baseline 28.0 pg/ml): 3.4 pg/mL | LH after 3 months ([2]; Patient 3, baseline 18.4 mIU/ml): 11.2 mIU/ml | FSH after 3 months ([2]; Patient 3, baseline 32.0 mIU/ml): 11.2 mIU/ml | Progesterone after 3 months ([2]; Patient 3, baseline <0.25 n/ml): < 0.25 n/ml | Estradiol after 3 months ([2]; Patient 4, baseline 20.0 pg/ml): 5.5 pg/mL | Progesterone after 3 months ([2]; Patient 4, baseline 3.0 n/ml): < 0.25 n/ml | FSH after 3 months ([2]; Patient 4, baseline 13.1 mIU/ml): 7.9 mIU/ml | LH after 3 months ([2]; Patient 4, baseline 18.3 mIU/ml): 5.0 MIU/ml | Estradiol and FSH levels [2, 5]: decreased | Levels of serum progesterone and LH [2, 5]: significant decrease | Compliment levels (C3 and C4) [3, 6]: returned to normal | Hemoglobin, hematocrit, white blood cells and platelets [3, 6]: returned to normal | Need of Imuran or prednisone to control SLE [3, 6]: no longer required Imuran or prednisone | GI symptoms [3, 6]: free of the above described GI symptoms | Body weight gained [3, 7]: 15-20 pounds | Gastrointestinal symptoms [3, 7]: free of gastrointestinal symptoms | Oral food intake ([3]; SLE patient 3, 1.75 mg daily s.c., required TPN before): able to eat soft, solid food by mouth | GI symptoms ([3]; SLE patient 3, 1.75 mg daily s.c.): controlled | Nutrition [3, 8]: able to eat and maintain their nutrition on liquid supplements taken by mouth | Body weight within six months ([3]; SLE patient 4, 1.5 mg daily s.c., oral intake): did not gain weight, but they did not lose weight | GI symptoms [3, 8]: controlled | Effectiveness of therapy in an older, post menopausal patient ([3]; SLE patient 5): effective | Eating and body weight ([3]; SLE patient 5, after six months of therapy): able to eat foods by mouth and gained weight | Migrating Motor Complexes, L-Fasted ([4]; 2 μg/100 g body weight s.c. daily, control fasted 4.69 ± 0.24): 4.60 ± 0.12 MMC/hour | Migrating Motor Complexes, L-Fed ([4]; 2 μg/100 g body weight s.c. daily, control fed 2.60 ± 0.27): 4.83 ± 0.65 MMC/hour | Migrating Motor Complexes, L-Fasted ([4]; 20 μg/100 g body weight s.c. daily, control fasted 4.43 ± 0.25): 5.41 ± 0.17 MMC/hour | Migrating Motor Complexes, L-Fed ([4]; 20 μg/100 g body weight s.c. daily, control fed 1.40 ± 0.48): 4.11 ± 0.22 MMC/hour | Migrating Motor Complexes, L-Fasted ([4]; 40 μg/100 g body weight s.c. daily, control fasted 4.75 ± 0.48): 4.48 ± 0.12 MMC/hour | Migrating Motor Complexes, L-Fed ([4]; 40 μg/100 g body weight s.c. daily, control fed 2.33 ± 0.33): 3.45 ± 0.25 MMC/hour | Dose at which the fed state was replaced by cycling MMCs (as little as) ([4]; fed rats): 2 μg/100 g body weight
